Read-outs that look alike come from different tables or passages of the source.
Legend:
elastin mRNA [1] = assay: One-step RT-PCR of elastin and β-actin mRNA
Protocol: Total RNA was extracted using the RNeasy Mini Kit, according to manufacturers instructions, and 1 μM of total RNA was added to each one step RT-PCR (Qiagen OneStep RT-PCR Kit) and reactions were set up according to manufacturers instructions in a total volume of 25 μl. The reverse transcription step was performed for elastin and β-actin reactions at 50 ° C. for 30 minutes followed by 15 minutes at 95 ° C.
5 μl samples of the elastin and β-actin PCR products from each reaction were ran on a 2% agarose gel and post-stained with ethidium bromide. The amount of elastin mRNA was standardized relative to the amount of β-actin mRNA.

[2] = test system: normal human skin fibroblasts; assay: Quantitative assay of insoluble elastin ([3H]-valine metabolic labeling) in fibroblast cultures; type: cell-based; settings: for reversal of the inhibitory effect of 200 μM iron treatment on elastin deposition: antioxidant applied with 200 μM of iron
human skin = settings: 10 μM MnSO4 or 20 μM FAC, 7 days; for elastic fibers (Movat's Pentachrome, ×400): person
Source text: Materials and Methods. Organ cultures of explants were derived from surgical biopsies of human skin. […] All organ cultures were fixed in 1% buffered formalin and their transversal histological sections were stained with Movat pentachrome method to visualize major components of extracellular matrix, including elastic fibers.

elastin mRNA [3] = assay: Northern blot analysis of elastin mRNA levels in human aortic smooth muscle cells; type: cell-based
Protocol: (§1) Smooth muscle cells were isolated in the following manner porcine thoracic aortas and coronary arteries were dissected from young pigs obtained from local slaughterhouse. Passage two of human aortic smooth muscle cells from a normal subject was purchased from Clonetics Inc. (San Diego, Calif.). Arterial tissues were diced and explanted in a-MEM (modified Eagle's medium) supplemented with 10% FBS, 25 mM HEPES, L-glutamine, and […]. Tissue samples were diced and cells isolated by collagenase and elastase digestion as previously described.
(§2) Porcine thoracic aortas and coronary arteries were dissected from young pigs obtained from local slaughterhouse. Passage two of human aortic smooth muscle cells from a normal subject was purchased from Clonetics Inc. (San Diego, Calif.). Arterial tissues were diced and explanted in a-MEM (modified Eagle's medium) supplemented with 10% FBS, 25 mM HEPES, L-glutamine, and […]. Tissue samples were diced and cells isolated by collagenase and elastase digestion as previously described. Cells were maintained in a-MEM supplemented with 5% FBS and were routinely passaged by trypsinization. All the experiments were performed using SMC at passage 2-5. […] Aortic and coronary artery SMC's were plated at the initial density 50,000 dish, either directly on plastic or on coverslips, and maintained for 1-2 days until confluency. Cultures were then divided into experimental groups and maintained in the presence and absence of experimental reagents for 7 days. Fresh media were added at days 3 and 5.

[4] = test system: normal human skin fibroblasts
Protocol: Since the net production of elastic fibers depend on the coordinated expression of multiple factors, the expression of three major factors facilitating elasogenesis by immunoflourecent microscopy after exposure of normal human skin fibroblasts to low (20 μM) and high (200 μM) iron concentrations was tested.

elastin mRNA [5] = settings: 60 μM DRB
Protocol: (§3) Quantitative TaqMan RT-PCR. […] In order to assess the effect of iron on elastin mRNA stability parallel quadruplicate cultures were grown to confluency in 100 mm dishes. […] The reverse transcriptase reaction was performed using 1.5 μg of total RNA, oligo(dT)'s and the SuperScript First-Strand synthesis system (Invitrogen Life Technologies) according to manufacturer's instructions.
(§4) Elastin mRNA levels was measured by real-time quantitative PCR method performed on the ABI PRISM 7700 Sequence Detection System (Applied Biosystems, Foster City, Calif.). For each treatment two distinct amplifications were carried out in parallel in order to amplify elastin cDNA and GAPDH cDNA. The amplification reactions were performed in 25 μl volumes containing 30 ng of cDNA per treatment in triplicate, 12.5 μl of 2× TaqMan Universal PCR Master Mix (Applied Biosystems), and 1.25 μl of 20× Assays-on-Demand Gene Expression probe for elastin (Applied Biosystems) or TaqMan GAPDH probe (Applied Biosystems). Elastin mRNA levels from each treatment was normalized to the corresponding amount of GAPDH mRNA levels. Water controls and samples without PCR mixtures were set up to eliminate the possibility of significant DNA contamination. Final results were expressed as the mean of two independent experiments.
Since steady-state mRNA levels reflect the balance between transcription efficiency and message decay, we further studied whether fluctuations in iron concentration may affect elastin mRNA stability. […] At indicated time points total RNA was extracted and subjected to quantitative TaqMan RT-PCR analysis. The results are expressed as the mean±SD from two separate experiments conducted in quadruplicate cultures.

serine proteinases = settings: 2-200 μM iron
[6] = test system: normal human skin fibroblasts; remark: listed apart in the source
Protocol: Assessment of Cell Proliferation. Normal human skin fibroblasts were suspended in DMEM containing 10% FBS and plated in 35 mm culture dishes (100,000 cells/dish) in quadruplicates. […] These cultures were then washed in PBS and treated with cold 5% trichloroacetic acid twice for 10 minutes at 4° C. For 30 minutes, 0.5 ml of 0.3 N NaOH was added to all dishes, and 200 μl aliquots of each culture were mixed with scintillation fluid and counted.

[7] = test system: normal human skin fibroblasts; remark: listed apart in the source
Protocol: Normal human skin fibroblasts were grown to confluency in 35 mm culture dishes (100,000 cells/dish) in quadruplicates. Then, 2 μCi of [^3H]-valine/ml of fresh media was added to each dish, along with or without 2, 20, 100, 200 μM of FAC. […] The cells were extensively washed with PBS and the soluble proteins present in the intracellular compartments were extracted overnight at 4° C. with 0.1 M acetic acid in the presence of proteinase inhibitors. After centrifugation the supernatants were pre-cleaned by 30 minutes incubation with 50 p. […] The protein A-containing beads were sedimented by centrifugation; washed with immunoprecipitation buffer, mixed with scintillation fluid and counted. […] The resulting pellets containing the insoluble elastin were then solubilized by boiling in 200 μl of 5.7 N HCl for 1 hour, and the aliquots were mixed in scintillation fluid and counted. […] Final results reflecting amounts of metabolically labeled insoluble elastin in individual cultures were normalized per their DNA content and expressed as CPM/1 DNA. […] The conditioned media was then removed and the cell layers were washed and incorporation of [^3H]-valine into the insoluble elastin was assessed as described above.

[8] = test system: normal human skin fibroblasts; settings: for elastin deposition (immunostaining): 3 days
elastin mRNA [9] = settings: 24 hours
Protocol: (§5) The intensity of elastin message signal detected by Northern blotting was assessed by densitometry after normalization to GAPDH message levels and the corresponding values are shown in the bar graph in arbitrary units. Elastin mRNA levels assessed by TaqMan real time PCR analysis were normalized to the corresponding levels of GAPDH mRNA and expressed as a percentage of untreated control values.

elastin mRNA [10] = test system: elastin mRNA
Protocol: as §3, §4, §5

[11] = test system: normal human skin fibroblasts; settings: 3 hours
Protocol: Assays of Intracellular ROS levels. […] This probe passively diffuses into the cell interior and only upon oxidation it releases a fluorescent product that can be visualized under fluorescent microscope or captured by flow cytophotometry, when it is excited at 480 nm. To measure intracellular ROS production normal human skin fibroblasts were plated on glass coverslips in 35 mm dishes (50,000 cells/dish) and grown to confluency. The cells were then washed with PBS and incubated with or without 10 μM of CM-H2DCFDA for 30 minutes in fresh media. The cells were then washed again in PBS and incubated with new media in the presence or absence of FAC (2-400 μM) for 3 additional hours. The cells were then washed twice with PBS before being mounted to the glass slides and the images were captured under a fluorescent microscope under identical parameters of contrast and brightness.
In addition, the quantification of this reaction was performed by flow cytometry (λ excitation 480 nm; λ emission 520 nm). Quadruplicate cultures of fibroblasts were preincubated with CM-H2DCFDA and maintained in the presence or absence of FAC as described above. […] They were then collected by centrifugation (4° C., 1000 RPM for 3 minutes), washed in cold PBS and fixed with 4% formaldehyde for 10 minutes in the dark and analyzed by flow cytometry (FACSCalibur, Beckton Dickinson).

[12] = test system: human dermal fibroblast cultures; assay: Immunohistochemical analysis of elastin synthesis in human dermal fibroblast cultures; type: cell-based; settings: for synthesis of elastin (elastic fibers detected by immunocytochemistry): all concentrations 0.5 μM-2.0 μM, fibroblasts from various aged subjects; for deposition of extracellular matrix components, elastin and collagen type I: human dermal fibroblast cultures
Source text: Refer to FIG. 1, which illustrates both the elastic fibers detected by immunocytochemistry and the morphometric analysis of elastic fibers. MnCl2 and Mn-PCA were introduced into the fibroblasts derived from the various aged subjects over various concentrations.

[13] = test system: human dermal fibroblast cultures; settings: immunohistochemistry, versus control
Protocol: In some experiments the serum free medium was also used.
The above prepared fibroblasts and smooth muscle cells were cultured in the presence or absence of (0.5-5 μM) of a manganese salt. Deposition of extracellular matrix components, elastin and collagen type I was assessed in 5-10 days old cultures by immunohistochemistry with a panel of specific antibodies.

human dermal fibroblasts = assay: Cellular proliferation of human dermal fibroblasts (total DNA content and [3H]-thymidine incorporation); type: cell-based; settings: person
Source text: Manganese compositions induce cellular proliferation.

[14] = test system: human aortic smooth muscle cells; assay: Metabolic labeling of newly synthesized insoluble elastin by human aortic smooth muscle cells; type: cell-based
Protocol: as §1
as §2, with “Cultures were then divided into experimental groups and maintained in the presence and absence of experimental reagents for 7 days. Fresh media were added at days 3 and 5.” left out

[15] = equimolar (20 μM) ferric iron and DFO

Molecule: CC(=O)N(O)CCCCCNC(=O)CCC(=O)N(O)CCCCCNC(=O)CCC(=O)N(O)CCCCCN [DFO, desferrioxamine]
- elastin mRNA levels (elastin mRNA [1]; 20 μM of DFO, compared to untreated control): significantly reduced
- iron induced increase in elastin mRNA levels (elastin mRNA [1]; [15]): abolished the iron induced increase
- iron induced increase in elastin deposition [2, 15]: abolished the iron induced increase

Molecule: O=S(=O)([O-])[O-].[Mn+2] [MnSO4, manganese sulfate]
- agitation and migration of stratum basale-derived cells with fibroblastic phenotype (human skin): higher than control level of agitation and migration of stratum basale-derived cells with fibroblastic phenotype
- infiltrating activated (differentiating) cells (×600) (human skin): seem to contain more such activated cells
- elastic fibers (Movat's Pentachrome, ×400) (human skin): stimulated production of long elastic fibers primarily running perpendicular to the epidermis
- transcription of the elastin gene (elastin mRNA levels) (elastin mRNA [3]): can induce transcription of the elastin gene

Molecule: CC1(C)CC(O)CC(C)(C)N1[O] [Tempol]
- reversal of the inhibitory effect of 200 μM iron treatment on elastin deposition [2]: not observed

Molecule: catalase
- reversal of the inhibitory effect of 200 μM iron treatment on elastin deposition [2]: not observed

Molecule: ferric ammonium citrate [FAC]
- immunodetectable levels of elastin binding protein (EBP) [4]: not changed
- immunodetectable levels of fibrillin-1 [4]: not changed
- immunodetectable levels of lysyl oxidase [4]: not changed
- elastin mRNA half-life (elastin mRNA [5]; 20 μM iron): ~16 h
- decrease in elastin mRNA level (elastin mRNA [5]; 200 μM iron): about 2.5 fold
- elastin mRNA half-life (elastin mRNA [5]; 200 μM iron): ~6 h
- elastolytic activity of serine proteinases (serine proteinases): did not stimulate elastolytic activity of serine proteinases
- [3H]-thymidine incorporation (proliferation rate) ([6]; high doses of iron (100 μM and 200 μM), 72 hours, listed as iron): proliferate with a significantly higher rate than untreated cells
- cellular proliferation rate ([6]; low iron concentrations (lower than 25 μM)): did not cause any increase in cellular proliferation rate
- [3H]-valine-labeled tropoelastin synthesis ([7]; 2 and 20 μM iron, 72 hours): syntesize more [^3H]-valine-labeled tropoelastin than untreated counterparts
- tropoelastin production ([7]; 100 and 200 μM iron versus 20 μM): lower tropoelastin production as compared to those treated with 20 μM
- elastin deposition (immunostaining) ([8]; 100 μM iron): did not induce better elastin deposition then treatment with 20
- elastin deposition (immunostaining) ([8]; 200 μM of iron): dragged elastin deposition back to the control levels
- production of elastic fibers (immunostaining) ([8]; 2 and 20 μM of iron, 3-day-long treatment): significantly increased the production of elastic fibers over control levels
- agitation and migration of stratum basale-derived cells with fibroblastic phenotype (human skin): higher than control level of agitation and migration of stratum basale-derived cells with fibroblastic phenotype
- infiltrating activated (differentiating) cells (×600) (human skin): seem to contain more such activated cells
- elastic fibers (Movat's Pentachrome, ×400) (human skin): induced deposition of shorter elastic fibers primarily running parallel to the epidermis
- elastin mRNA levels (Northern blot, corrected for GAPDH) (elastin mRNA [9]; 200 μM of iron): returned back to control values
- elastin mRNA levels (Northern blot, corrected for GAPDH) (elastin mRNA [9]; 2 and 20 μM iron): dose-dependent increase in elastin mRNA levels
- increase in elastin mRNA levels (elastin mRNA [10]; 20 μM of iron, 24 hours): ~3 fold
- tropoelastin mRNA (real-time RT-PCR) (elastin mRNA [10]; 200 μM of iron, 24 hours): significant reduction in tropoelastin mRNA
- increase in the elastin mRNA level (elastin mRNA [10]; low iron concentrations (2-20 μM)): 2-3 fold
- intracellular ROS production ([11]; 2-40 μM of iron): produced the same amount of ROS as untreated controls
- intracellular ROS production ([11]; 100-400 μM iron): dose dependant increase in ROS production

Molecule: manganese chloride [MnCl2]
- synthesis of elastin (elastic fibers detected by immunocytochemistry) [12]: induce synthesis of elastin
- deposition of extracellular matrix components, elastin and collagen type I [12]: induced
- transcription of the elastin gene (elastin mRNA levels) (elastin mRNA [3]): can induce transcription of the elastin gene

Molecule: manganese salt of L-Pyrrolidone Carboxylic Acid [Mn-PCA]
- deposition of collagen type I [13]: increased deposition in collagen type I
- dermal fibroblast proliferation (human dermal fibroblasts): stimulate dermal fibroblast proliferation
- increase in elastin synthesis over the control [14]: two-fold
- synthesis of elastin (elastic fibers detected by immunocytochemistry) [12]: induce synthesis of elastin
- deposition of extracellular matrix components, elastin and collagen type I [12]: induced
- more elastin transcription over the control (elastin mRNA [3]): ~66%
- transcription of the elastin gene (elastin mRNA levels) (elastin mRNA [3]): can induce transcription of the elastin gene

— US9006170B2, “Compositions for elastogenesis and connective tissue treatment” (Human Matrix Sciences, LLC, priority 2004, dated 2015)
